We go through one compound from patent US20170246166A1, “1,2-BENZOTHIAZOLE COMPOUNDS FOR THE TREATMENT OF KIDNEY DISORDERS” (priority 2014, published 2017).

Structures are written as SMILES.

In one experiment the test system is PKC. Put plainly: PKC in vivo target inhibition assay (pleckstrin phosphorylation in blood cells). As to conditions: male ICR mice, oral gavage, 2 h after treatment. The arrangement: species or system mouse. The procedure:
The purpose of this assay is to evaluate the effects of in vivo administration of a test compound on PKC substrate phosphorylation in blood cells.
Pleckstrin is one of the PKC protein substrates and is primarily expressed in platelets and peripheral blood mononuclear cells (PBMC). Pleckstrin phosphorylation is proportional to PKC activity. The phosphorylation state of the pleckstrin protein in purified platelets and PBMC from mouse blood is analyzed via Western blotting using a primary antibody specific for phosphorylated PKC substrates. This antibody recognizes multiple phosphorylated PKC substrates that include, but are not limited to p-pleckstrin. The p-pleckstrin band is identified based on its molecular weight.
Male ICR mice (Charles River) are dosed by oral gavage with a test compound homogenized in 1% hydroxethylcellulose/0.25% TWEEN® 80, at a concentration range of 0.3-3 mg/mL, depending on dose; thus dosing volume is 10 ml/kg body weight. Staurosporine, dissolved in the same vehicle, may be used as a positive control to verify that the assay is functioning. […]
10% SDS-PAGE is conducted on the cell lysates (30 μg protein loaded per lane), with 130 V for 90 min. […] Intensity of near-infrared fluorescence is proportional to the level of PKC substrate phosphorylation. It is quantitated with ODYSSEY® software. […]

For the next experiment, the target named is T1, human PKCε (Homo sapiens, UniProt Q02156).
T1 sequence (Q02156 1-737): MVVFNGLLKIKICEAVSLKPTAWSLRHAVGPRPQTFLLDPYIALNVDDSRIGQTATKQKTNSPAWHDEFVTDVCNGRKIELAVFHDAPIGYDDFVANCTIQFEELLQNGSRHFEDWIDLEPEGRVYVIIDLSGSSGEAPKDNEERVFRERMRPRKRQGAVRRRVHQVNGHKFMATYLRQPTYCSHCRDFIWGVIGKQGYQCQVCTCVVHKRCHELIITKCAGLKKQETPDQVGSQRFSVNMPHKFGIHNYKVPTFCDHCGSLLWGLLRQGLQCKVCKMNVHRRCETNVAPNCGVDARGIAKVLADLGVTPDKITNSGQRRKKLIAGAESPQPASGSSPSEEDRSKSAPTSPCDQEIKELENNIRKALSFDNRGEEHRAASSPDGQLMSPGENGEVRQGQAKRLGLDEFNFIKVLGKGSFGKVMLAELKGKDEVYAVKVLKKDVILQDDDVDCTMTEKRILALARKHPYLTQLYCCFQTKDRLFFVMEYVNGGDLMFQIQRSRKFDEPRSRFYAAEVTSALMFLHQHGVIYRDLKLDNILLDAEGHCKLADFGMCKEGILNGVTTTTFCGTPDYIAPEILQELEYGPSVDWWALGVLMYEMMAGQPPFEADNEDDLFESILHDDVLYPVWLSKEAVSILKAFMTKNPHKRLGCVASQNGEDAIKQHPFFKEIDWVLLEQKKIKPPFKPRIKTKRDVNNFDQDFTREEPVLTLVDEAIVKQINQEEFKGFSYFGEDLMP
Put plainly: PKC isoforms based HTRF KinEASE-STK assay, PKCε. Type of experiment: biochemical. The following applies: 25 μM ATP in substrate mix, 30 min. An excerpt: The purpose of this assay is to evaluate the inhibitory activity of compounds on various PKC isoforms. It has been reported that perturbations in vascular cell homeostasis caused by different PKC isoforms (PKC-α, β1/2, and PKC-δ) are linked to the development of pathologies affecting large vessel (atherosclerosis, cardiomyopathy) and small vessel (retinopathy, nephropathy, and neuropathy) complications. Geraldes, P. and King, G. L., “Activation of Protein Kinase C Isoforms and Its Impact on Diabetic Complications”, Cir.
Effects of a test compound on the kinase activity of PKCα, β2, δ, ε, ι, and ζ, are determined using a HTRF KINEASE™-STK assay kit (Cisbio) in accordance with the protocol provided by the vendor. It is a general method for measuring Serine/Threonine kinase activities using kinase substrates and a universal detection system. In the current protocol, biotinilated STK1provided in the assay kit is used as the substrate that can be phosphorylated by any PKC isoform. The HTRF KINEASE™-STK assay kit format involves the two steps (Enzymatic step and Detection step) described below. First, the kinase phosphorylates the substrate in the presence of ATP. Second, the detection reagents provided in the assay kit recognize the phosphorylated substrate.

The term IC50 denotes the midpoint of a concentration-inhibition curve. The low end stands for inhibition by little substance, the high end for a need for much substance. As for `C[C@@H]1CN(C(=O)c2cc(-c3c(F)cc(O)cc3F)cc3cnsc23)C[C@H](C)N1.Cl` [Example 2, 4-(7-{[(3R,5 S)-3,5-DIMETHYLPIPERAZIN-1-YL]CARBONYL}-1,2-BENZOTHIAZOL-5-YL)-3,5-DIFLUOROPHENOL HYDROCHLORIDE], the “ID50, pleckstrin phosphorylation, PBMCs” value in the experiment on PKC (PBMCs) is given as “about 18.03 mg/kg”. Further, the “ID50, pleckstrin phosphorylation, platelets” value with PKC (platelets) is given as “about 11.85 mg/kg”. The IC50 against human PKCε is ~21.9 nM.
